Assay results as given in US10196403B2, “Compounds and compositions and uses thereof” (Sunovion Pharmaceuticals Inc., priority 2016, dated 2019).

System: mice
Assay: Neuropharmacological Assay (SmartCube)
Format: in vivo
Settings: for minimal effective dose: Mus musculus, read-out: POTENCY (minimal effective dose, MED); for minimal effective dose / POTENCY (minimal effective dose, MED): MED = dose having 50% or more total activity in SmartCube; for AD: ADHD (SmartCube probability) / AG: analgesic (SmartCube probability) / AX: anxiolytic (SmartCube probability) / CE: cognitive enhancer (SmartCube probability) / DP: anti-depressant (SmartCube probability) / MS: mood stabilizer (SmartCube probability) / PS: anti-psychotic (SmartCube probability) / SD: sedative hypnotic (SmartCube probability) / UN: uncharacterized CNS activity (SmartCube probability): mice, i.p. 15 min before test, most efficacious dose(s) of 3 doses
Source text: Neuropharmacological Assay (SmartCube™)
Neurosci. 2011 Sep. 9; 5:103 (doi: 10.3389/fnins.2011.00103) (“Roberds”). As reported in Roberds, because psychiatric diseases generally result from disorders of cell-cell communication, circuitry, intact systems are useful in detecting improvement in disease-relevant endpoints. These endpoints are typically behavioral in nature, often requiring human observation and interpretation. To facilitate testing of multiple compounds for behavioral effects relevant to psychiatric disease, PsychoGenics, Inc. (Tarrytown, N.Y., “PGI”) developed SmartCube™, an automated system in which behaviors of compound-treated mice are captured by digital video and analyzed with computer algorithms. (D. Brunner et al., Drug Discov. Today 2002, 7:S107-S112). PGI Analytical Systems uses data from SmartCube™ to compare the behavioral signature of a test compound to a database of behavioral signatures obtained using a large set of diverse reference compounds. (The composition of the database as well as validation of the method is further described in Roberds). In this way, the neuropharmacological effects of a test compound can be predicted by similarity to major classes of compounds, such as antipsychotics, anxiolytics and antidepressants.
The SmartCube™ system produces an activity signature indicating the probability that the activity of the test compound at the administered dose matches a given class of neuropharmacological agents. (See, e.g., Roberds, FIGS. 2 and 3). The test compound is simultaneously compared against multiple classes of agents; thus, a separate probability is generated for each behavioral effect measured (e.g., anxiolytic activity, analgesic activity, etc.). In the table below, these probabilities are reported for each behavioral effect measured as follows:
where LOQ is the limit of quantification.
Provided compounds were dissolved in a mixture of Pharmasolve™ (N-methyl-2-pyrrolidone), polyethylene glycol and propylene glycol, and were injected i.p. 15 min. before the behavioral test. For each compound, injections were administered at 3 different doses. For each behavioral effect measured, results for the most efficacious dose(s) are presented. In the table below, DP: anti-depressant; AX: anxiolytic; SD: sedative hypnotic; PS: anti-psychotic; MS: mood stabilizer; AD: ADHD; CE: cognitive enhancer; AG: analgesic; UN: uncharacterized CNS activity.
The potency of many of the compounds in the table was also determined in the SmartCube™ system. Test compounds were routinely examined at dose levels of 0.3, 1, 3 10 and 30 mg per kg (mpk), although the dose range was increased or decreased if necessary to obtain a full dose response curve. A compound's minimal effective dose (MED) is a measure of the compounds potency. The MED was defined as the dose (in mpk) having 50% or more total activity in SmartCube.

Row | SMILES | minimal effective dose | AD: ADHD (SmartCube probability) | AG: analgesic (SmartCube probability) | AX: anxiolytic (SmartCube probability) | CE: cognitive enhancer (SmartCube probability) | DP: anti-depressant (SmartCube probability) | MS: mood stabilizer (SmartCube probability) | PS: anti-psychotic (SmartCube probability) | SD: sedative hypnotic (SmartCube probability) | UN: uncharacterized CNS activity (SmartCube probability) | POTENCY (minimal effective dose, MED)
1 | CNC[C@H]1OCCc2cccc(C#N)c21 [Example 44, (S)-1-((methylamino)methyl)isochromane-8-carbonitrile] | 3 to 10 mg/kg | + (LOQ≤ + <5%) | ++ (5%≤ ++ <25%) | ++ (5%≤ ++ <25%) | ++ (5%≤ ++ <25%) | + (LOQ≤ + <5%) | + (LOQ≤ + <5%) | ++ (5%≤ ++ <25%) | + (LOQ≤ + <5%) | +++ (25%≤ +++ <50%) | –
2 | CNC[C@H]1OCCCc2cccc(F)c21 [Example 60, (S)-1-(9-fluoro-1,3,4,5-tetrahydrobenzo[c]oxepin-1-yl)-N-methylmethanamine] | 3 to 10 mg/kg | + (LOQ≤ + <5%) | + (LOQ≤ + <5%) | ++ (5%≤ ++ <25%) | + (LOQ≤ + <5%) | ++ (5%≤ ++ <25%) | + (LOQ≤ + <5%) | ++ (5%≤ ++ <25%) | ++++ (50%≤ ++++) | +++ (25%≤ +++ <50%) | –
3 | CNC[C@@H]1OCCc2ccc3c(c21)CCO3 [Example 107, (R)-N-methyl-1-(3,4,8,9-tetrahydro-1H-furo[2,3-h]isochromen-1-yl)methanamine] | 3 to 10 mg/kg | + (LOQ≤ + <5%) | + (LOQ≤ + <5%) | ++ (5%≤ ++ <25%) | + (LOQ≤ + <5%) | ++ (5%≤ ++ <25%) | + (LOQ≤ + <5%) | ++ (5%≤ ++ <25%) | ++ (5%≤ ++ <25%) | +++ (25%≤ +++ <50%) | –
4 | CNC[C@H]1OC[C@H](O)c2ccc3c(c21)OCO3 (single isomer, unassigned) [Example 112] | > 30 mg/kg | + (LOQ≤ + <5%) | + (LOQ≤ + <5%) | ++ (5%≤ ++ <25%) | + (LOQ≤ + <5%) | ++ (5%≤ ++ <25%) | + (LOQ≤ + <5%) | + (LOQ≤ + <5%) | + (LOQ≤ + <5%) | + (LOQ≤ + <5%) | –
5 | CNC[C@H]1OC[C@@H](O)c2ccc3c(c21)OCO3 (single isomer, unassigned) [Example 113] | > 30 mg/kg | + (LOQ≤ + <5%) | + (LOQ≤ + <5%) | ++ (5%≤ ++ <25%) | + (LOQ≤ + <5%) | + (LOQ≤ + <5%) | + (LOQ≤ + <5%) | + (LOQ≤ + <5%) | + (LOQ≤ + <5%) | + (LOQ≤ + <5%) | –
6 | CNC[C@@H]1OCCc2ccc(Cl)cc21 [Example 65, (R)-1-(7-chloroisochroman-1-yl)-N-methylmethanamine] | – | + (LOQ≤ + <5%) | ++ (5%≤ ++ <25%) | ++ (5%≤ ++ <25%) | + (LOQ≤ + <5%) | ++ (5%≤ ++ <25%) | + (LOQ≤ + <5%) | ++ (5%≤ ++ <25%) | ++ (5%≤ ++ <25%) | ++++ (50%≤ ++++) | A-B
7 | CNC[C@H]1OCCc2c(Cl)cccc21 [Example 32, (S)-1-(5-chloroisochroman-1-yl)-N-methylmethanamine] | 10 to 30 mg/kg | + (LOQ≤ + <5%) | + (LOQ≤ + <5%) | ++ (5%≤ ++ <25%) | ++ (5%≤ ++ <25%) | ++ (5%≤ ++ <25%) | + (LOQ≤ + <5%) | ++ (5%≤ ++ <25%) | + (LOQ≤ + <5%) | + (LOQ≤ + <5%) | –
8 | CNC[C@@H]1OCCc2c(O)cc3c(c21)OCO3 (single isomer, unassigned) [Example 103] | > 30 mg/kg | + (LOQ≤ + <5%) | + (LOQ≤ + <5%) | + (LOQ≤ + <5%) | + (LOQ≤ + <5%) | + (LOQ≤ + <5%) | + (LOQ≤ + <5%) | + (LOQ≤ + <5%) | + (LOQ≤ + <5%) | + (LOQ≤ + <5%) | –
9 | CNC[C@@H]1OCCc2ccc3c(c21)OCCO3 [Example 10, (R)-N-methyl-1-(2,3,7,10-tetrahydro-8H-[1,4]dioxino[2,3-h]isochromen-10-yl)methanamine] | 10 to 30 mg/kg | + (LOQ≤ + <5%) | + (LOQ≤ + <5%) | ++ (5%≤ ++ <25%) | ++ (5%≤ ++ <25%) | ++ (5%≤ ++ <25%) | + (LOQ≤ + <5%) | ++ (5%≤ ++ <25%) | + (LOQ≤ + <5%) | +++ (25%≤ +++ <50%) | –
10 | CNC(C)C1OCCc2ccc3c(c21)OCO3 (centres unmarked) [Example 57] | – | + (LOQ≤ + <5%) | ++ (5%≤ ++ <25%) | ++ (5%≤ ++ <25%) | ++ (5%≤ ++ <25%) | + (LOQ≤ + <5%) | + (LOQ≤ + <5%) | + (LOQ≤ + <5%) | + (LOQ≤ + <5%) | +++ (25%≤ +++ <50%) | D (>30 mpk)
11 | CNC[C@H]1OCCc2cccc(Cl)c21 [Example 36, (S)-1-(8-chloroisochroman-1-yl)-N-methylmethanamine] | 3 to 10 mg/kg | + (LOQ≤ + <5%) | + (LOQ≤ + <5%) | ++ (5%≤ ++ <25%) | ++ (5%≤ ++ <25%) | + (LOQ≤ + <5%) | + (LOQ≤ + <5%) | ++ (5%≤ ++ <25%) | + (LOQ≤ + <5%) | +++ (25%≤ +++ <50%) | –
